Test results taken from the NIST ThermoML archive (doi:10.1021/je100353j).
Numbers after ± are expanded uncertainties.

Experiments:
[1] = Liquid
[2] = xn = mol fraction of the nth substance listed; conditions: Liquid, x2 = 0

`C1CCCCC1` [cyclohexane] showed a mass density ([1]; 293.15 K, 101.33 kPa) of 778.8 ± 0.5 kg/m3, a mass density ([1]; 293.15 K, 5000 kPa) of 782.8 ± 0.7 kg/m3 and a mass density ([1]; 293.15 K, 10000 kPa) of 786.6 ± 0.8 kg/m3. For the same compound, the mass density ([1]; 293.15 K, 20000 kPa) was 793.9 ± 1.1 kg/m3, the mass density ([1]; 293.15 K, 30000 kPa) was 801 ± 1.4 kg/m3 and the mass density ([1]; 293.15 K, 40000 kPa) was 807.8 ± 1.7 kg/m3. It also gave a mass density ([1]; 298.15 K, 101.33 kPa) of 773.9 ± 0.6 kg/m3, a mass density ([1]; 298.15 K, 5000 kPa) of 778.3 ± 0.7 kg/m3 and a mass density ([1]; 298.15 K, 10000 kPa) of 782.3 ± 0.9 kg/m3. It also gave a mass density ([1]; 298.15 K, 20000 kPa) of 789.8 ± 1.1 kg/m3, a mass density ([1]; 298.15 K, 30000 kPa) of 796.7 ± 1.4 kg/m3 and a mass density ([1]; 298.15 K, 40000 kPa) of 802.9 ± 1.7 kg/m3. It also gave a mass density ([1]; 303.15 K, 101.33 kPa) of 769.3 ± 0.6 kg/m3, a mass density ([1]; 303.15 K, 5000 kPa) of 773.6 ± 0.7 kg/m3 and a mass density ([1]; 303.15 K, 10000 kPa) of 777.8 ± 0.9 kg/m3. For the same compound, the mass density ([1]; 303.15 K, 20000 kPa) was 785.7 ± 1.2 kg/m3, the mass density ([1]; 303.15 K, 30000 kPa) was 792.8 ± 1.4 kg/m3 and the mass density ([1]; 303.15 K, 40000 kPa) was 799.2 ± 1.7 kg/m3. For the same compound, the mass density ([1]; 308.15 K, 101.33 kPa) was 764.5 ± 0.6 kg/m3, the mass density ([1]; 308.15 K, 5000 kPa) was 769 ± 0.7 kg/m3 and the mass density ([1]; 308.15 K, 10000 kPa) was 773.4 ± 0.9 kg/m3. For the same compound, the mass density ([1]; 308.15 K, 20000 kPa) was 781.5 ± 1.2 kg/m3, the mass density ([1]; 308.15 K, 30000 kPa) was 788.8 ± 1.5 kg/m3 and the mass density ([1]; 308.15 K, 40000 kPa) was 795.5 ± 1.7 kg/m3. It also gave a mass density ([1]; 313.15 K, 101.33 kPa) of 759.7 ± 0.6 kg/m3, a mass density ([1]; 313.15 K, 5000 kPa) of 764.5 ± 0.7 kg/m3 and a mass density ([1]; 313.15 K, 10000 kPa) of 768.9 ± 0.9 kg/m3. For the same compound, the mass density ([1]; 313.15 K, 20000 kPa) was 777.4 ± 1.2 kg/m3, the mass density ([1]; 313.15 K, 30000 kPa) was 784.8 ± 1.5 kg/m3 and the mass density ([1]; 313.15 K, 40000 kPa) was 791.8 ± 1.8 kg/m3.
Work on `C1CCCCC1` [cyclohexane] + COC(=O)OC yielded a mass density ([2]; 293.15 K, 100 kPa) of 778.8 ± 0.5 kg/m3, a mass density ([2]; 293.15 K, 5000 kPa) of 782.8 ± 0.7 kg/m3 and a mass density ([2]; 293.15 K, 10000 kPa) of 786.6 ± 0.8 kg/m3. For the same compound, the mass density ([2]; 293.15 K, 20000 kPa) was 793.9 ± 1.1 kg/m3, the mass density ([2]; 293.15 K, 30000 kPa) was 801 ± 1.4 kg/m3 and the mass density ([2]; 293.15 K, 40000 kPa) was 807.8 ± 1.7 kg/m3. It also gave a mass density ([2]; 298.15 K, 100 kPa) of 773.9 ± 0.6 kg/m3, a mass density ([2]; 298.15 K, 5000 kPa) of 778.3 ± 0.7 kg/m3 and a mass density ([2]; 298.15 K, 10000 kPa) of 782.3 ± 0.9 kg/m3. The mass density ([2]; 298.15 K, 20000 kPa) was 789.8 ± 1.1 kg/m3, the mass density ([2]; 298.15 K, 30000 kPa) was 796.7 ± 1.4 kg/m3 and the mass density ([2]; 298.15 K, 40000 kPa) was 802.9 ± 1.7 kg/m3. The mass density ([2]; 303.15 K, 100 kPa) was 769.3 ± 0.6 kg/m3, the mass density ([2]; 303.15 K, 5000 kPa) was 773.6 ± 0.7 kg/m3 and the mass density ([2]; 303.15 K, 10000 kPa) was 777.8 ± 0.9 kg/m3. For the same compound, the mass density ([2]; 303.15 K, 20000 kPa) was 785.7 ± 1.2 kg/m3, the mass density ([2]; 303.15 K, 30000 kPa) was 792.8 ± 1.4 kg/m3 and the mass density ([2]; 303.15 K, 40000 kPa) was 799.2 ± 1.7 kg/m3. For the same compound, the mass density ([2]; 308.15 K, 100 kPa) was 764.5 ± 0.6 kg/m3, the mass density ([2]; 308.15 K, 5000 kPa) was 769 ± 0.7 kg/m3 and the mass density ([2]; 308.15 K, 10000 kPa) was 773.4 ± 0.9 kg/m3. It also gave a mass density ([2]; 308.15 K, 20000 kPa) of 781.5 ± 1.2 kg/m3, a mass density ([2]; 308.15 K, 30000 kPa) of 788.8 ± 1.5 kg/m3 and a mass density ([2]; 308.15 K, 40000 kPa) of 795.5 ± 1.7 kg/m3. For the same compound, the mass density ([2]; 313.15 K, 100 kPa) was 759.7 ± 0.6 kg/m3, the mass density ([2]; 313.15 K, 5000 kPa) was 764.5 ± 0.7 kg/m3 and the mass density ([2]; 313.15 K, 10000 kPa) was 768.9 ± 0.9 kg/m3. For the same compound, the mass density ([2]; 313.15 K, 20000 kPa) was 777.4 ± 1.2 kg/m3, the mass density ([2]; 313.15 K, 30000 kPa) was 784.8 ± 1.5 kg/m3 and the mass density ([2]; 313.15 K, 40000 kPa) was 791.8 ± 1.8 kg/m3.
